Test results: patent publication US9597347B2, “Compositions for treating obesity and insulin resistance disorders” (President and Fellows of Harvard College, priority 2003, dated 2017)

Experiments:
[1] = test system: Wild-type N2 C. elegans worms; assay: Nile Red staining of fat accumulation in wild-type N2 C. elegans; assay type: in vivo; settings: 100 μM, L1 animals, 48 hours, control 2.5% v/v DMSO
3T3-L1 cells = assay: Adipocyte differentiation and fat content by Oil Red O staining, 3T3-L1 cells; assay type: cell-based
Protocol: To obtain evidence that resveratrol affects fat metabolism in a physiologically relevant cell, we examined the effect of increasing concentrations of resveratrol on 3T3-L1 and NIH3T3 cell differentiation and fat content. 3T3-L1 or NIH3T3 cells were grown to confluence and allowed to pack in for 2 days at which point differentiation was initiated by addition of isobutylmethylxanthine, dexamethasone and insulin in the presence of vehicle (ethanol alone) or resveratrol at concentrations of 0, 12.5 and 25 μM. After 10 days of differentiation, fat content was assessed by Oil Red O staining, as described below. The results, which are shown in FIG. 12, indicate that concentrations of 25 μM or higher resveratrol decreased the quantity of cellular fat in 3T3-L1 and NIH3T3 cells. The results in NIH3T3 cells confirm the results obtained in C. elegans.
We then infected 3T3 preadipoctyes/adipocytes with pMX alone or pMX encoding PPAR-γ and examined the effect of resveratrol on 3T3 cell differentiation. 3T3-L1 and NIH3T3 cells were infected with a plasmid expressing GFP or PPAR-γ and grown to confluence. […]
3T3-L1 and NIH3T3 cells were maintained in DMEM plus 10% calf serum. […] The staining of adipocytes with Oil Red-O and quantitation was performed as described previously (Ramirez-Zacarias J L, Castro-Munozledo F, Kuri-Harcuch W. Histochemistry. 1992 July; 97(6):493-7). […]

[2] = test system: Wild-type N2 C. elegans worms; assay: Nile Red staining of fat accumulation in wild-type N2 C. elegans; assay type: in vivo; settings: overnight
Protocol: Wild-type N2 C. elegans worms were grown on OP50 bacteria and exposed overnight to vehicle (0.1% ethanol) alone or with 10, 50 or 100 μM of resveratrol (in ethanol). Fat accumulation was visualized with Nile Red staining, as described further below and in Ashrafi K, et al. Nature 421:268-27 (2003).
Synchronized starved L1 worms were grown in the presence of Nile Red. Strains were grown on NGM plates at 25° C. for approximately 48 hours until the young adult stage was reached. 20-30 young adult worms were then washed 2× with M9 buffer and transferred to new NGM/Nile red experimental plates that contained either OP50 or HTT5 E. coli carrying the L4440 RNAi control vector. For experiments comparing the effect of nicotinamide and resveratrol on fat mobilization, OP50 plates were coated with vehicle alone or Nicotinamide (in PBS), or vehicle alone and Resveratrol (in Ethanol or DMSO).
Resveratrol (Indofine #024964) was dissolved in Ethanol or DMSO to a 10 mM stock solution. Resveratrol was added to 60 mm NGM agar dishes containing either OP50 or RNAi expressing bacteria (HT115) to a final concentration of 10 μm, 50 μm, and 100 μM. Nile Red was also added to plates to a final concentration of 0.05 μg/ml. Nicotinamide (Supelco #47865-U) was diluted in PBS including Nile Red and added to […] dishes containing OP50 to a final concentration of 1 mM, 10 mM, or 100 mM.
Nile Red: Nile Red Powder (Sigma #N-3013) was dissolved in acetone at 500 μg/ml, diluted in 1× Phosphate Buffered Saline (PBS) including appropriate drug and applied to surface of Nematode Growth Media (NGM) plates previously seeded with OP50 or RNAi bacteria, at a final concentration of 0.05 μg/ml. Fat content was monitored and recorded by fluorescence microscopy.
Nile Red Staining was visualized by using a Nikon TE2000S microscope equipped with a CY3 filter (emission 535-685 nm). Images were captured using a SPOT RT monochrome digital camera attached to the Nikon Microscope with SPOT RT software v3.5. All Nile red images were acquired using identical settings and exposure times and then changed to red palette.

Structure (SMILES): Oc1ccc(/C=C/c2cc(O)cc(O)c2)cc1 [resveratrol, 3,5,4′-Trihydroxy-trans-stilbene]
- fat staining [1]: Significant reduction of fat staining
- concentrations that decreased the quantity of cellular fat (3T3-L1 cells; 10 days of differentiation, 0, 12.5 and 25 μM tested, Oil Red O): ≥ 25 µM
- inhibition of 3T3 preadipocyte differentiation (3T3-L1 cells; cells overexpressing PPAR-γ, 0, 25 or 50 μM, eight days of differentiation): partially negated inhibition of 3T3 preadipocyte differentiation by resveratrol
- fat accumulation ([2]; 10 μM or 50 μM): marked decrease in fat accumulation
- reduction of fat accumulation ([2]; 100 μM): 90%
